Measured values reported in patent US20250313548A1 (Actio Biosciences, Inc., priority 2023, published 2025).

Biological target: human, KCNT1 (Homo sapiens (Human), UniProt Q5JUK3)
Assay: FLIPR Tl/K Flux Assay
Type: cell-based
Conditions: HEK293 cells stably expressing human KCNT1; Tl+ flux stimulated with EC80 of agonist Loxapine
How it was run: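 Inhibition values come from a Hill-equation fit of % inhibition versus log concentration, using normalized fluorescence (Fmax/Fmin) over a 160 s read. The read followed stimulation with Tl+ plus EC80 agonist loxapine after 30 min compound pre-incubation at 25 °C. Cells were KCNT1-expressing HEK293, dye-loaded 1 h in pH 7.4 HEPES/HBSS with 5 mM probenecid.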

human, KCNT1, sequence (Q5JUK3 whole entry): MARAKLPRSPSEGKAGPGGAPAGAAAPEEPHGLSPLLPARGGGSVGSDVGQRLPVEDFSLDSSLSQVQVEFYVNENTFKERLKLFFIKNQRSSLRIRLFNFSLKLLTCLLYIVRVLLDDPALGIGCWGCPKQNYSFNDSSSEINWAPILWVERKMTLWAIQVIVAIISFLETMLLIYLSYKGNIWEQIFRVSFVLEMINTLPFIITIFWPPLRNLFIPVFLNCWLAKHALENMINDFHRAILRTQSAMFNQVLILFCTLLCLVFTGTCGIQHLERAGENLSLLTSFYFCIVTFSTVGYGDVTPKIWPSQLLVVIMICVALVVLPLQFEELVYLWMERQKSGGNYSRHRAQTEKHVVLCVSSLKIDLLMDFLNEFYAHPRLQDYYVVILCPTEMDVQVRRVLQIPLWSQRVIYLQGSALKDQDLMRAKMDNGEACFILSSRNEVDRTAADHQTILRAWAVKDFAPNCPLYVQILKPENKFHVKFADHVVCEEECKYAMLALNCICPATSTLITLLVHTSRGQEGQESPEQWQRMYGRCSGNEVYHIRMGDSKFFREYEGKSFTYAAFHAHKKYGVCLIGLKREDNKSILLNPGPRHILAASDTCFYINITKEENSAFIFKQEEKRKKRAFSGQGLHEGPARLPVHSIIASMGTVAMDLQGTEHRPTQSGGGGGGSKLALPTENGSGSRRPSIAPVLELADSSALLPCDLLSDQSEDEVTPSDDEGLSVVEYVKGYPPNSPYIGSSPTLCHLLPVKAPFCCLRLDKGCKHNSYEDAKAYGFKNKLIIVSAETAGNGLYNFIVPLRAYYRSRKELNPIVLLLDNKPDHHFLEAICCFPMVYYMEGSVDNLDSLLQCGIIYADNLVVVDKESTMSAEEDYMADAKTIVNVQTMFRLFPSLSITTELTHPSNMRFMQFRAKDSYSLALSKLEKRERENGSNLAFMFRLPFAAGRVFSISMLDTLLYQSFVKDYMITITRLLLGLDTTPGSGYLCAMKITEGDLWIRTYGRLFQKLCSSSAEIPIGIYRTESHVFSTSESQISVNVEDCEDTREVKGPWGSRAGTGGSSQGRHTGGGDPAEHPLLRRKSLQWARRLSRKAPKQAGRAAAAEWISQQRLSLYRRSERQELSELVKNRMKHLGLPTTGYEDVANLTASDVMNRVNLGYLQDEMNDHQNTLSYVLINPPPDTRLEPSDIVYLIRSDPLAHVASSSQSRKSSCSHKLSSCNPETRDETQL

IC50 [nM] | SMILES
< 250 | Cn1nc(CC(F)(F)F)cc1C(=O)N[C@H]1CCCn2nc(-c3ccnc(C(F)(F)F)c3)cc21 [Compound I-389a]
< 250 | CCc1cc(-c2cc3n(n2)CCC[C@@H]3NC(=O)c2cc(C(F)(F)F)nn2C)ccn1 [Compound I-390a]
< 250 | Cn1nc(C(F)(F)F)cc1C(=O)N[C@H]1CCCn2nc(-c3ccnc(OC(F)(F)F)c3)cc21 [Compound I-391a]
< 250 | O=C(N[C@H]1CCCc2cnc(-c3ccnc(C(F)(F)F)c3)cc21)c1cccc(C(F)(F)F)c1 [Compound I-392a]
> 1000 | COc1cc(-c2cc3c(cn2)CCCC3NC(=O)c2cc(C(F)(F)F)nn2C)ccn1 (stereo not shown) [Compound I-393]
250 to 500 | Cc1cccc(C(=O)N[C@H]2CCCc3cnc(-c4ccnc(C(F)(F)F)c4)cc32)c1 [Compound I-394a]
> 1000 | CS(=O)(=O)c1cccc(C(=O)N[C@H]2CCc3nn(-c4ccnc(C(F)(F)F)c4)cc32)c1 [Compound I-395a]
< 250 | O=C(N[C@H]1CCc2nn(-c3ccnc(C(F)(F)F)c3)cc21)c1cc(F)cc(Cl)c1 [Compound I-396a]
> 1000 | Cc1cc(C(=O)N[C@H]2CCCn3nc(-c4ccnc(C(F)(F)F)c4)cc32)cn(C)c1=O [Compound I-397a]
< 250 | O=C(N[C@H]1CCCn2nc(-c3ccnc(C(F)(F)F)c3)cc21)c1cn(C2CC2)nc1C(F)(F)F [Compound I-398a]
< 250 | O=C(N[C@H]1CCCn2nc(-c3ccnc(C(F)(F)F)c3)cc21)c1cnn(C(F)(F)F)c1 [Compound I-399a]
< 250 | O=C(N[C@H]1CCCn2nc(-c3ccnc(C(F)(F)F)c3)cc21)c1ccc2ccnn2c1 [Compound I-400a]
> 1000 | O=C(N[C@H]1CCCn2nc(-c3ccnc(C(F)(F)F)c3)cc21)c1cn(C2CC2)nn1 [Compound I-401a]
< 250 | Cc1cc(C(=O)N[C@H]2CCCn3nc(-c4ccnc(C(F)(F)F)c4)cc32)nc(C2CC2)n1 [Compound I-402a]
< 250 | O=C(N[C@H]1CCCn2nc(-c3ccnc(C(F)(F)F)c3)cc21)c1ccnn1CC(F)F [Compound I-403a]
< 250 | N#Cc1cc(OC(F)(F)F)cc(C(=O)N[C@H]2CCCn3nc(-c4ccnc(C(F)(F)F)c4)cc32)c1 [Compound I-404a]
< 250 | O=C(N[C@H]1CCCn2nc(-c3ccnc(C(F)(F)F)c3)cc21)c1cccc(F)c1F [Compound I-405a]
250 to 500 | Cc1nc(C(F)(F)F)c(C(=O)N[C@H]2CCCn3nc(-c4ccnc(C(F)(F)F)c4)cc32)s1 [Compound I-406a]
250 to 500 | Cn1ncc(C(=O)N[C@H]2CCCn3nc(-c4ccnc(C(F)(F)F)c4)cc32)c1Cl [Compound I-407a]
< 250 | O=C(N[C@H]1CCCn2nc(-c3ccnc(C(F)(F)F)c3)cc21)c1cnn2cc(F)ccc12 [Compound I-408a]
< 250 | O=C(N[C@H]1CCCn2nc(-c3ccnc(C(F)(F)F)c3)cc21)c1ccc(F)c(C(F)(F)F)c1 [Compound I-410a]
< 250 | O=C(N[C@H]1CCCn2nc(-c3ccnc(C(F)(F)F)c3)cc21)c1ccc(F)c(OC(F)(F)F)c1 [Compound I-411a]
> 1000 | CC(C)n1cnc(C(=O)N[C@H]2CCCn3nc(-c4ccnc(C(F)(F)F)c4)cc32)n1 [Compound I-412a]
> 1000 | O=C(N[C@H]1CCCn2nc(-c3ccnc(C(F)(F)F)c3)cc21)c1cc2n(n1)CCCO2 [Compound I-413a]

IC50 [nM] | SMILES
< 250 | Cc1cc(C(=O)N[C@H]2CCCn3nc(-c4ccnc(C(F)(F)F)c4)cc32)cc(C)n1 [Compound I-414a]
< 250 | Cn1cc(C(=O)N[C@H]2CCCn3nc(-c4ccnc(C(F)(F)F)c4)cc32)c(C(F)F)n1 [Compound I-415a]
250 to 500 | Cc1cn(C)nc1C(=O)N[C@H]1CCCn2nc(-c3ccnc(C(F)(F)F)c3)cc21 [Compound I-416a]
< 250 | Cc1nn(C)c(C(=O)N[C@H]2CCCn3nc(-c4ccnc(C(F)(F)F)c4)cc32)c1F [Compound I-417a]
< 250 | Cc1cc(C#N)cc(C(=O)N[C@H]2CCCn3nc(-c4ccnc(C(F)(F)F)c4)cc32)c1 [Compound I-418a]
< 250 | O=C(N[C@H]1CCCn2nc(-c3ccnc(C(F)(F)F)c3)cc21)c1cccc(C(F)(F)F)c1F [Compound I-419a]
< 250 | COc1cc(C(=O)N[C@H]2CCCn3nc(-c4ccnc(C(F)(F)F)c4)cc32)c(F)cn1 [Compound I-420a]
< 250 | Cn1ncc(C(=O)N[C@H]2CCCn3nc(-c4ccnc(C(F)(F)F)c4)cc32)c1C(F)F [Compound I-421a]
> 1000 | O=C(N[C@H]1CCCn2nc(-c3ccnc(C(F)(F)F)c3)cc21)c1nc2ccccn2n1 [Compound I-422a]
> 1000 | Cc1ccn(CC(=O)N[C@H]2CCCn3nc(-c4ccnc(C(F)(F)F)c4)cc32)n1 [Compound I-423a]
< 250 | COc1cc(C(=O)N[C@H]2CCCn3nc(-c4ccnc(C(F)(F)F)c4)cc32)nc(C(F)(F)F)n1 [Compound I-424a]
> 1000 | N#Cc1c(C(=O)N[C@H]2CCCn3nc(-c4ccnc(C(F)(F)F)c4)cc32)ncn1CC(F)(F)F [Compound I-425a]
< 250 | Cc1cc(C(=O)N[C@H]2CCCn3nc(-c4ccnc(C(F)(F)F)c4)cc32)n(C(F)F)n1 [Compound I-426a]
< 250 | COc1cc(-c2cc3n(n2)CC[C@@H]3NC(=O)c2cc(C(F)(F)F)nn2C)ccn1 [Compound I-427a]
> 1000 | COc1cc(-c2cc3n(n2)CC[C@H]3NC(=O)c2cc(C(F)(F)F)nn2C)ccn1 [Compound I-427b]
< 250 | COc1cc(-c2nc3c(o2)CCC[C@@H]3NC(=O)c2cc(C(F)(F)F)nn2C)ccn1 [Compound I-428a]
< 250 | CC(C)c1cc(-c2cc3n(n2)CCC[C@@H]3NC(=O)c2cc(C(F)(F)F)nn2C)ccn1 [Compound I-429a]
< 250 | COc1cc(-c2cc3n(n2)CCC[C@@H]3NC(=O)c2cc(C(F)(F)F)nn2C)cc(C)n1 [Compound I-431a]
< 250 | Cc1cc(-c2cc3n(n2)CCC[C@@H]3NC(=O)c2cc(C(F)(F)F)nn2C)cc(C(F)(F)F)n1 [Compound I-432a]
> 1000 | Cc1cc(-c2cc3n(n2)CCC[C@@H]3NC(=O)c2cc(C(F)(F)F)nn2C)cc(C)n1 [Compound I-433a]
< 250 | Cc1nn2ccccc2c1C(=O)N[C@H]1CCCn2nc(-c3ccnc(C(F)(F)F)c3)cc21 [Compound I-434a]
> 1000 | O=C(N[C@H]1CCCn2nc(-c3ccnc(C(F)(F)F)c3)cc21)c1cnn(CC(F)(F)F)c1 [Compound I-435a]
> 1000 | O=C(N[C@H]1CCCn2nc(-c3ccnc(C(F)(F)F)c3)cc21)c1cc2n(n1)CCO2 [Compound I-436a]
< 250 | O=C(N[C@H]1CCCn2nc(-c3ccnc(C(F)(F)F)c3)cc21)c1cncc(C(F)(F)F)n1 [Compound I-437a]

IC50 [nM] | SMILES
> 1000 | O=C(N[C@H]1CCCn2nc(-c3ccnc(C(F)(F)F)c3)cc21)c1nccc(C(F)(F)F)n1 [Compound I-438a]
< 250 | CCc1[nH]nc(C(=O)N[C@H]2CCCn3nc(-c4ccnc(C(F)(F)F)c4)cc32)c1F [Compound I-439a]
500 to 1000 | Cc1ccn2ncc(C(=O)N[C@H]3CCCn4nc(-c5ccnc(C(F)(F)F)c5)cc43)c2n1 [Compound I-440a]
< 250 | CC(C)c1nc(C(=O)N[C@H]2CCCn3nc(-c4ccnc(C(F)(F)F)c4)cc32)co1 [Compound I-441a]
< 250 | O=C(N[C@H]1CCCn2nc(-c3ccnc(C(F)(F)F)c3)cc21)c1cc2cccnn2c1 [Compound I-442a]
< 250 | N#Cc1cccc(C(=O)N[C@H]2CCCCn3nc(-c4ccnc(C(F)(F)F)c4)cc32)c1 [Compound I-443a]
500 to 1000 | Cn1nc(C(F)(F)F)cc1C(=O)N[C@H]1CCCn2nc(-c3ccnc(C(C)(C)O)c3)cc21 [Compound I-444a]
< 250 | Cc1cnc(C(F)(F)F)cc1-n1cc2c(n1)CCC[C@@H]2NC(=O)c1cc(C(F)(F)F)nn1C [Compound I-445a]
< 250 | COc1cc(-n2cc3c(n2)CC[C@@H]3NC(=O)c2cc(F)cc(F)c2)ccn1 [Compound I-446a]
< 250 | COc1cc(-c2cc3n(n2)CC[C@@H]3NC(=O)c2cc(F)cc(F)c2)ccn1 [Compound I-447a]
< 250 | COc1cc(-c2cc3n(n2)CC[C@H]3NC(=O)c2cc(F)cc(F)c2)ccn1 [Compound I-447b]
< 250 | Cc1cc(C(=O)N[C@H]2CCCn3nc(-c4ccnc(C(F)(F)F)c4)cc32)n(-c2ccccc2)n1 [Compound I-448a]
< 250 | N#Cc1cccc(C(=O)N[C@H]2CCCn3nc(-c4ccnc(C5CC5)c4)cc32)c1 [Compound I-449a]
< 250 | O=C(N[C@H]1CCn2nc(-c3ccnc(C(F)(F)F)c3)cc21)c1cc(Cl)cc(C(F)(F)F)c1 [Compound I-451a]
250 to 500 | Cn1nc(C(F)(F)F)cc1C(=O)N[C@H]1CCCc2cnc(-c3ccnc(C(F)(F)F)c3)nc21 [Compound I-452a]
> 1000 | Cn1nc(C(F)(F)F)cc1C(=O)N[C@@H]1CCCc2cnc(-c3ccnc(C(F)(F)F)c3)nc21 [Compound I-452b]
> 1000 | O=C(N[C@H]1CCCc2nnc(-c3ccnc(C(F)(F)F)c3)cc21)c1cc(F)cc(F)c1 [Compound I-453a]
> 1000 | O=C(N[C@@H]1CCCc2nnc(-c3ccnc(C(F)(F)F)c3)cc21)c1cc(F)cc(F)c1 [Compound I-453b]
< 250 | N#Cc1cccc(C(=O)N[C@H]2CCc3nn(-c4ccnc(C(F)(F)F)c4)cc32)c1 [Compound I-454a]
< 250 | N#Cc1cc(F)cc(C(=O)N[C@H]2CCc3nn(-c4ccnc(C(F)(F)F)c4)cc32)c1 [Compound I-455a]
< 250 | COc1cc(-c2cc3n(n2)CCCC[C@@H]3NC(=O)c2cccc(C#N)c2)ccn1 [Compound I-456a]
< 250 | N#Cc1cccc(C(=O)N[C@H]2CCCCn3nc(-c4ccnc(C5CC5)c4)cc32)c1 [Compound I-457a]
